Experimental data reported in patent publication US10941132B2, “Pyrazole derivatives” (HUA MEDICINE (SHANGHAI) Ltd., priority 2016, dated 2021).

Biological target: T1, recombinant rat mGluR5 (Rattus norvegicus, UniProt P31424)
T1 construct: expressed in transfected cells
Assay: Functional calcium flux assay (FLIPR), antagonist evaluation against glutamate-evoked [Ca2+]i increase
Format: cell-based
Settings: Table 1; HEK293 cells stably expressing recombinant rat mGluR5; 15 min incubation of test compound, then submaximal glutamate; read-out: IC50 value (FLIPR assay)
Experimental: Functional Calcium Clux Assay Methodology
For functional assays, HEK293 cells stably expressing recombinant rat mGluR5 were seeded in 384-well plates and dye loaded using Fluo-8. Cells were then washed to remove the un-incorporated dye. Antagonist evaluation was performed following a 15 min incubation of the test compound followed by the addition of submaximal concentration of glutamate. Intracellular calcium ([Ca^2+]i) measurements were performed using a fluorometric imaging plate reader (FLIPR, Molecular Devices). The glutamate-evoked increase in [Ca^2′]i in the presence of the test compounds was compared to the response to glutamate alone (the positive control). Antagonist inhibition curves were fitted with a 4-parameter logistic equation giving IC50 values, and Hill coefficients using an iterative nonlinear curve fitting algorithm.
The tables below provide IC50 data in this assay. In the activity column, A=IC50>1,000 and ≤5,000 nM; B=IC50>500 and ≤1,000 nM and C=IC50≤500 nM.

T1 sequence (P31424 21-1203): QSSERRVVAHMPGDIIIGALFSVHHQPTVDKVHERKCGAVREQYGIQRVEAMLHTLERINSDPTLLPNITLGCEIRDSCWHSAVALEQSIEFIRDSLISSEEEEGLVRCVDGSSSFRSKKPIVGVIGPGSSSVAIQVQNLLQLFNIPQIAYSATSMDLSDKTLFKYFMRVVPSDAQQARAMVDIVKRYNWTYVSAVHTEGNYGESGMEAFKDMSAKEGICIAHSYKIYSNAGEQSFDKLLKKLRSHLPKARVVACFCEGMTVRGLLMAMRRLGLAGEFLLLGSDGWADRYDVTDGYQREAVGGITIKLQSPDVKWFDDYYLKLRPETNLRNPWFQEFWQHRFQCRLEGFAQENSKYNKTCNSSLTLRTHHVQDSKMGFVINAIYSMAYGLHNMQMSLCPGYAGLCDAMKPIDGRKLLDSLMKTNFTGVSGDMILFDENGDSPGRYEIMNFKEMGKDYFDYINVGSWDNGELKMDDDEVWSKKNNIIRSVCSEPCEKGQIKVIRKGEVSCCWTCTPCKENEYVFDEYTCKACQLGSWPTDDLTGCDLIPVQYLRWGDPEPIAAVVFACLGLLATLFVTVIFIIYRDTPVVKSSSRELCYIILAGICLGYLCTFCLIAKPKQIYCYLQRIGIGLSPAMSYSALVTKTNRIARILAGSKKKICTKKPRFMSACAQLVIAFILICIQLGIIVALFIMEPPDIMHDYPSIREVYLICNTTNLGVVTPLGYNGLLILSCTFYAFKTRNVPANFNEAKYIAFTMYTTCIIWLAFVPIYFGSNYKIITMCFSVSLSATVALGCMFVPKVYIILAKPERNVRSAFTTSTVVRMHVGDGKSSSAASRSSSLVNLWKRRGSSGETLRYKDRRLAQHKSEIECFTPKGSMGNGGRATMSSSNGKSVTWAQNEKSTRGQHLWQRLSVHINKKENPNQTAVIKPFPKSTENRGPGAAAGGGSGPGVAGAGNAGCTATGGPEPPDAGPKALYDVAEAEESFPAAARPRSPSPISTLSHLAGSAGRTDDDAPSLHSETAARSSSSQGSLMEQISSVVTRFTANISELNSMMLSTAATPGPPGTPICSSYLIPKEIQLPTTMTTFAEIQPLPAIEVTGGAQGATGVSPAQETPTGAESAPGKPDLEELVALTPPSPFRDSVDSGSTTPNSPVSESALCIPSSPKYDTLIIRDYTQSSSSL

Row | IC50 [nM] | Structure (SMILES)
1 | ≤ 500 | FC(F)(F)c1ccc(-n2ncc(C#Cc3ncccn3)c2Cl)cc1 [Compound 36, 2-((5-chloro-1-(4-(trifluoromethyl)phenyl)-1H-pyrazol-4-yl)ethynyl) pyrimidine]
2 | ≤ 500 | Fc1ccc(-n2ncc(C#Cc3ncccn3)c2Cl)cc1 [Compound 17]
3 | ≤ 500 | FC(F)(F)c1ccc(-n2ncc(C#Cc3ccccn3)c2Cl)cc1 [Compound 35, 2-((5-chloro-1-(4-(trifluoromethyl)phenyl)-1H-pyrazol-4-yl)ethynyl)pyridine]
4 | ≤ 500 | COc1nn(-c2ccc(F)cc2)cc1C#Cc1ccccn1 [Compound 52, 2-((1-(4-fluorophenyl)-3-methoxy-1H-pyrazol-4-yl)ethynyl)pyridine]
5 | ≤ 500 | N#Cc1cc(F)cc(-n2cc(C#Cc3ccccn3)cn2)c1 [Compound 75, 3-fluoro-5-(4-(pyridin-2-ylethynyl)-1H-pyrazol-1-yl)benzonitrile]
6 | ≤ 500 | Fc1ccc(-n2cc(C#Cc3ccccn3)cn2)cc1 [Compound 82, 2-((1-(4-fluorophenyl)-1H-pyrazol-4-yl)ethynyl)pyridine]
7 | 1000 to 5000 | FC(F)(F)Oc1ccc(-n2cc(C#Cc3cccnc3)cn2)cc1 [Compound 91, 3-((1-(4-(trifluoromethoxy)phenyl)-H-pyrazol-4-yl)ethynyl)pyridine]
8 | ≤ 500 | Fc1ccc(-n2ncc(C#Cc3ccccn3)c2Cl)cn1 [Compound 18]
9 | ≤ 500 | N#Cc1cc(F)cc(-n2cc(C#Cc3ccccn3)c(Cl)n2)c1 [Compound 38, 3-(3-chloro-4-(pyridin-2-ylethynyl)-1H-pyrazol-1-yl)-5-fluorobenzonitrile]
10 | ≤ 500 | FC(F)(F)Oc1ccc(-n2cc(C#Cc3ccccn3)cn2)cc1 [Compound 90, 2-((1-(4-(trifluoromethoxy)phenyl)-1H-pyrazol-4-yl)ethynyl)pyridine]
11 | ≤ 500 | N#Cc1cc(F)cc(-n2cc(C#Cc3ncccn3)c(C3CC3)n2)c1 [Compound 55, 3-(3-cyclopropyl-4-(pyrimidin-2-ylethynyl)-1H-pyrazol-1-yl)-5-fluorobenzonitrile]
12 | 1000 to 5000 | CS(=O)(=O)c1ccc(-n2cc(C#Cc3ccccn3)c(Cl)n2)cc1 [Compound 58, 2-((3-chloro-1-(4-(methylsulfonyl)phenyl)-1H-pyrazol-4-yl)ethynyl)pyridine]
13 | ≤ 500 | COCCOc1c(C#Cc2ccccn2)cnn1-c1ccc(F)cc1 [Compound 56]
14 | ≤ 500 | Fc1ccc(-n2cc(C#Cc3ncccn3)cn2)cn1 [Compound 34, 2-((1-(6-fluoropyridin-3-yl)-1H-pyrazol-4-yl)ethynyl)pyrimidine]
15 | ≤ 500 | COCCOc1nn(-c2cc(F)cc(C#N)c2)c(C)c1C#Cc1ccccn1 [Compound 29, 3-fluoro-5-(3-(2-methoxyethoxy)-5-methyl-4-(pyridin-2-ylethynyl)-1H-pyrazol-1-yl)benzonitrile]
16 | ≤ 500 | Cc1nn(-c2ccc(F)cc2)c(C)c1C#Cc1ncccn1 [Compound 2, 2-((1-(4-fluorophenyl)-3,5-dimethyl-1H-pyrazol-4-yl)ethynyl) pyrimidine]
17 | 1000 to 5000 | N#Cc1cc(F)cc(-n2cc(C#Cc3cccnc3)cn2)c1 [Compound 76, 3-fluoro-5-(4-(pyridin-3-ylethynyl)-1H-pyrazol-1-yl)benzonitrile]
18 | ≤ 500 | Fc1ccc(-n2cc(C#Cc3ccccn3)c(OC(F)F)n2)nc1 [Compound 68, 2-(3-(difluoromethoxy)-4-(pyridin-2-ylethynyl)-1H-pyrazol-1-yl)-5-fluoropyridine]
19 | ≤ 500 | FC(F)(F)Oc1ccc(-n2cc(C#Cc3ccccn3)c(Cl)n2)cc1 [Compound 40, 2-((3-chloro-1-(4-(trifluoromethoxy)phenyl)-1H-pyrazol-4-yl)ethynyl)pyridine]
20 | ≤ 500 | Fc1cncc(-n2cc(C#Cc3ccccn3)cn2)c1 [Compound 33]
21 | ≤ 500 | Cc1nn(-c2ccc(F)cc2)c(C(F)(F)F)c1C#Cc1ccccn1 [Compound 12, 2-((1-(4-fluorophenyl)-3-methyl-5-(trifluoromethyl)-1H-pyrazol-4-yl)ethyny) pyridine]
22 | ≤ 500 | Fc1ccc(-n2cc(C#Cc3ccccn3)c(Cl)n2)nc1 [Compound 49, 2-(3-chloro-4-(pyridin-2-ylethynyl)-1H-pyrazol-1-yl)-5-fluoropyridine]
23 | ≤ 500 | Fc1cncc(-n2cc(C#Cc3ccccn3)c(Cl)n2)c1 [Compound 44, 3-(3-chloro-4-(pyridin-2-ylethynyl)-1H-pyrazol-1-yl)-5-fluoropyridine]
24 | 1000 to 5000 | COCCOc1nn(-c2cc(F)cc(C#N)c2)c(C)c1C#Cc1ncccn1 [Compound 30, 3-fluoro-5-(3-(2-methoxyethoxy)-5-methyl-4-(pyrimidin-2-ylethynyl)-1H-pyrazol-1-yl)benzonitrile]
25 | 1000 to 5000 | Cc1nn(-c2cc(F)cc(C#N)c2)c(C(F)(F)F)c1C#Cc1ccccn1 [Compound 11, 3-fluoro-5-(3-methyl-4-(pyridin-2-ylethynyl)-5-(trifluoromethyl)-1H-pyrazol-1-yl)benzonitrile]
26 | ≤ 500 | Fc1ccc(-n2cc(C#Cc3ccnc(Cl)c3)cn2)cc1 [Compound 85, 2-chloro-4-((1-(4-fluorophenyl)-1H-pyrazol-4-yl)ethynyl)pyridine]
27 | ≤ 500 | Cc1nn(-c2ccc(F)cc2)c(C)c1C#Cc1ccncn1 [Compound 3, 4-((1-(4-fluorophenyl)-3,5-dimethyl-1H-pyrazol-4-yl)ethynyl) pyrimidine]
28 | ≤ 500 | COc1c(C#Cc2ccccn2)cnn1-c1ccc(F)cn1 [Compound 62, 5-fluoro-2-(5-methoxy-4-(pyridin-2-ylethynyl)-1H-pyrazol-1-yl)]
29 | ≤ 500 | Cc1nn(-c2cc(F)cc(C#N)c2)c(C)c1C#Cc1ccccn1 [Compound 5]
30 | ≤ 500 | N#Cc1cc(F)cc(-n2cc(C#Cc3ccncc3)cn2)c1 [Compound 79, 3-fluoro-5-(4-(pyridin-4-ylethynyl)-1H-pyrazol-1-yl)benzonitrile]

Same assay, conditions: Table 2; HEK293 cells stably expressing recombinant rat mGluR5; 15 min incubation of test compound, then submaximal glutamate; read-out: IC50 (FLIPR assay)

Row | IC50 [nM] | Structure (SMILES)
31 | 1000 to 5000 | N#Cc1cc(F)cc(-n2ccc(C#Cc3ccccc3)n2)c1 [Compound 104]
32 | ≤ 500 | Cc1cc(C#Cc2ccncc2)nn1-c1cc(F)cc(C#N)c1 [Compound 102, 3-fluoro-5-(5-methyl-3-(pyridin-4-ylethynyl)-1H-pyrazol-1-yl) benzonitrile]
33 | ≤ 500 | Cc1cc(C#Cc2ccccn2)nn1-c1cc(F)cc(C#N)c1 [Compound 97, 3-fluoro-5-(5-methyl-3-(pyridin-2-ylethynyl)-1H-pyrazol-1-yl) benzonitrile]
34 | ≤ 500 | Cc1cn(-c2cc(F)cc(C#N)c2)nc1C#Cc1ccccn1 [Compound 59, 3-fluoro-5-(4-methyl-3-(pyridin-2-ylethynyl)-1H-pyrazol-1-yl) benzonitrile]
35 | 500 to 1000 | Cc1cn(-c2ccc(F)cn2)nc1C#Cc1ccccn1 [Compound 72, 5-fluoro-2-(4-methyl-3-(pyridin-2-ylethynyl)-1H-pyrazol-1-yl) pyridine]
36 | ≤ 500 | Cc1cc(C#Cc2ccccc2)nn1-c1cc(F)cc(C#N)c1 [Compound 96, 3-fluoro-5-(5-methyl-3-(phenylethynyl)-1H-pyrazol-1-yl) benzonitrile]
37 | 1000 to 5000 | FC(F)(F)Oc1ccc(-n2ccc(C#Cc3ncccn3)n2)cc1 [Compound 123, 2-((1-(4-(trifluoromethoxy)phenyl)-1H-pyrazol-3-yl)ethynyl) pyrimidine]
38 | ≤ 500 | Cc1cn(-c2cc(F)cc(C#N)c2)nc1C#Cc1ncccn1 [Compound 60, 3-fluoro-5-(4-methyl-3-(pyrimidin-2-ylethynyl)-1H-pyrazol-1-yl) benzonitrile]
39 | 1000 to 5000 | Cc1cc(C#Cc2cccnc2)nn1-c1ccc(F)cc1 [Compound 127, 3-((1-(4-fluorophenyl)-5-methyl-1H-pyrazol-3-yl)ethynyl)pyridine]
40 | 1000 to 5000 | FC(F)(F)Oc1ccc(-n2ccc(C#Cc3cnccn3)n2)cc1 [Compound 125, 2-((1-(4-(trifluoromethoxy)phenyl)-1H-pyrazol-3-yl)ethynyl) pyrazine]
41 | ≤ 500 | N#Cc1cc(F)cc(-n2ccc(C#Cc3cccc(Cl)c3)n2)c1 [Compound 107, 3-(3-((3-chlorophenyl)ethynyl)-1H-pyrazol-1-yl)-5-fluorobenzonitrile]
42 | ≤ 500 | N#Cc1cc(F)cc(-n2ccc(C#Cc3cnccn3)n2)c1 [Compound 111, 3-fluoro-5-(3-(pyrazin-2-ylethynyl)-1H-pyrazol-1-yl)benzonitrile]
43 | 1000 to 5000 | Fc1ccc(-n2ccc(C#Cc3ccccc3)n2)cc1 [Compound 113, 1-(4-fluorophenyl)-3-(phenylethynyl)-1H-pyrazole]
44 | 1000 to 5000 | FC(F)(F)Oc1ccc(-n2ccc(C#Cc3ccncc3)n2)cc1 [Compound 124, 4-((1-(4-(trifluoromethoxy)phenyl)-1H-pyrazol-3-yl)ethynyl) pyridine]
45 | ≤ 500 | Fc1ccc(-n2ccc(C#Cc3ccnc(Cl)c3)n2)cc1 [Compound 116, 2-chloro-4-((1-(4-fluorophenyl)-1H-pyrazol-3-yl)ethynyl)pyridine]
46 | ≤ 500 | Cc1cc(C#Cc2cnccn2)nn1-c1cc(F)cc(C#N)c1 [Compound 103, 3-fluoro-5-(5-methyl-3-(pyrazin-2-ylethynyl)-1H-pyrazol-1-yl) Benzonitrile]
47 | 1000 to 5000 | Fc1ccc(-n2ccc(C#Cc3cccnc3)n2)cc1 [Compound 114, 3-((1-(4-fluorophenyl)-1H-pyrazol-3-yl)ethynyl)pyridine]
